# “And” between values parts separate entries of the source, which are not always exact repeats. Equal values may be shown once. Marks after values point to notes of the source that are not given here.
# Columns and labels:
# [1] = tested on: Pulmonary Interstitial Hyperplasia (Fibrosis); assay: Effect of oral 5MP2P upon pulmonary interstitial hyperplasia in dogs; assay type: in vivo, Beagle dogs
# Procedure: The mean score for Group I (Control) was 2.11 + 0.31, and for Group IV, which received 5MP2P, 150 mg/kg per day orally in capsules, was 0.22 + 0.15.
# [2] = tested on: Asbestos-Induced Pulmonary Interstitial Fibrosis; assay: Effect of oral 5MP2P upon asbestos-induced pulmonary interstitial fibrosis in hamsters; assay type: in vivo; parameters: key to Pulmonary Fibrosis Scores Light Microscope (individual animal) / Pulmonary Fibrosis Scores Electron Microscope (individual animal): 0 = normal tissue; 1 = minimal; 2 = moderate; 3 = severe
# From the text: In hamsters, pulmonary fibrosis induced with crysotile asbestos was removed following oral 5MP2P (cf. Table 4).
# The novel role of 5MP2P in the therapeutic repair of fibrotic lung tissue featuring removal of fibrotic lesions, and concomitant regeneration of normal lung tissue has been observed in experimental asbestosis by histopathological examination of lung tissue specimens under the light microscope, and electron microscopy (Table 4).
# This was subsequently confirmed by ashing of lung specimens in a laboratory oven, and then determining the asbestos content.
# Acute toxicity (LD50) = details: in vivo
# From the text: The acute toxicity of the ingredient in the medical composition of the present invention which exerts the anti-fibrotic activity is as shown in the table below.
# [3] = tested on: Pulmonary Interstitial Hyperplasia (Fibrosis); assay: Effect of oral 5MP2P upon pulmonary interstitial hyperplasia in dogs; assay type: in vivo, Beagle dogs; details: for Hyperplasia Scores 0 (number of dogs): 0 = normal tissue; for Hyperplasia Scores 1 (number of dogs): 1 = minimal; for Hyperplasia Scores 2 (number of dogs): 2 = moderate; for Hyperplasia Scores 3 (number of dogs): 3 = severe; for Incidence of Normal Lung / Average Scores (hyperplasia): dogs; for Incidence of Normal Lung: control 0/9; for Average Scores (hyperplasia): score 0-3, control 2.11+0.31
# [4] = tested on: fibrosis (interstitial hyperplasia); assay: Histopathological examination of the lungs of rats for fibrosis after 5MP2P in the diet; assay type: in vivo
# Procedure: The results of a histopathological examination of the lungs of rats for fibrosis (interstitial hyperplasia) after receiving 300 mg/kg body of 5MP2P in the diet for three months are summarized in Table 2. The individual microscopic readings of the lung are also shown in Table 2, a score schedule of 0, 1, 2 and 3 reflects the degree of fibrosis.
# The data in […] reveal a statistically significant reduction in amount of fibrosis in rats receiving 5MP2P as compared to placebo control rats (Group 1). The mean score for the controls (Group 1) was 1.63 + 0.23, and for Group IV (5MP2P, 300 mg/kg body weight daily) was 0.95 + 0.23.
# Student's T value was 2.43, with P less than 0.02 (highly significant statistically).
# [5] = hamsters, Group III: asbestos by inhalation for 5 days, 5MP2P 500 MG/KG/day orally in the diet for two months, beginning two months after exposure
# [6] = 300 mg/kg in the diet for three months, 19 animals
smiles,measurement,setting,value
"Cc1ccc(=O)n(-c2ccccc2)c1 [5MP2P, 5-Methyl-1-phenyl-2-(1H)-pyridone]",Hyperplasia Scores 0 (number of dogs),"[1]; 150 MG/KG/day, 9 dogs, 0 = normal tissue",7
same,Hyperplasia Scores 1 (number of dogs),"[1]; 150 MG/KG/day, 9 dogs, 1 = minimal",2
same,Incidence of Normal Lung,"[1]; dogs, 150 MG/KG/day oral, control 0/9",7/9
same,recurrence of asbestos-induced fibrosis,[2]; after 5MP2P had been discontinued for two months,did not recur
same,lung cell-imbedded asbestos fibers,"[2]; electron microscope, confirmed by ashing of lung specimens and determining the asbestos content",had been removed
same,"Pulmonary Fibrosis Scores Lung Density, Average","[2]; hamsters, Group III, 500 MG/KG/day in the diet for two months, asbestos without 5MP2P 2.53+0.23, no asbestos 1.00+0.05",1.17+0.10**
same,"Pulmonary Fibrosis Scores Electron Microscope, Average","[2]; hamsters, Group III, 500 MG/KG/day in the diet for two months, asbestos without 5MP2P 2.75+0.25, no asbestos 0.25+0.25",0.25+0.25**
same,"Pulmonary Fibrosis Scores Light Microscope, Average","[2]; hamsters, Group III, 500 MG/KG/day in the diet for two months, asbestos without 5MP2P 2.75+0.25, no asbestos 0.50+0.25",1.00+0.41**
same,Pulmonary Fibrosis Scores Electron Microscope (individual animal),[2]; [5],0 (3×) and 1
same,Pulmonary Fibrosis Scores Light Microscope (individual animal),[2]; [5],0 and 2 and 1 (2×)
same,Pulmonary Fibrosis Scores Lung Density (individual animal),[2]; [5],0.98 and 1.04 and 1.26 and 1.41
same,pulmonary fibrosis induced with crysotile asbestos,"[2]; hamsters, oral 5MP2P",removed
same,LD50,"Acute toxicity (LD50); ip, Guinea pig",460 ± 28 mg/kg
same,LD50,"Acute toxicity (LD50); ip, Mouse",600 ± 43 mg/kg
same,LD50,"Acute toxicity (LD50); ip, Rat",430 ± 29 mg/kg
same,LD50,"Acute toxicity (LD50); iv, Cat",40 mg/kg
same,LD50,"Acute toxicity (LD50); iv, Dog",200 mg/kg
same,LD50,"Acute toxicity (LD50); iv, Monkey",100 mg/kg
same,LD50,"Acute toxicity (LD50); iv, Mouse",285 ± 5 mg/kg
same,LD50,"Acute toxicity (LD50); iv, Rabbit",280 ± 32 mg/kg
same,LD50,"Acute toxicity (LD50); po, Cat",500 mg/kg
same,LD50,"Acute toxicity (LD50); po, Dog",300 mg/kg
same,LD50,"Acute toxicity (LD50); po, Guinea pig",810 ± 25 mg/kg
same,LD50,"Acute toxicity (LD50); po, Mouse",998 mg/kg
same,LD50,"Acute toxicity (LD50); po, Rat female",2300 mg/kg
same,LD50,"Acute toxicity (LD50); po, Rat male",1300 mg/kg
same,Hyperplasia Scores 0 (number of dogs),"[3]; 25 MG/KG/day, 6 dogs",1
same,Hyperplasia Scores 1 (number of dogs),"[3]; 25 MG/KG/day, 6 dogs",1
same,Hyperplasia Scores 2 (number of dogs),"[3]; 25 MG/KG/day, 6 dogs",4
same,Hyperplasia Scores 3 (number of dogs),"[3]; 25 MG/KG/day, 6 dogs",0
same,Hyperplasia Scores 0 (number of dogs),"[3]; 75 MG/KG/day, 8 dogs",2
same,Hyperplasia Scores 1 (number of dogs),"[3]; 75 MG/KG/day, 8 dogs",2
same,Hyperplasia Scores 2 (number of dogs),"[3]; 75 MG/KG/day, 8 dogs",3
same,Hyperplasia Scores 3 (number of dogs),"[3]; 75 MG/KG/day, 8 dogs",1
same,Hyperplasia Scores 2 (number of dogs),"[3]; 150 MG/KG/day, 9 dogs",0
same,Hyperplasia Scores 3 (number of dogs),"[3]; 150 MG/KG/day, 9 dogs",0
same,Incidence of Normal Lung,[3]; 25 MG/KG/day oral,1/6
same,Incidence of Normal Lung,[3]; 75 MG/KG/day oral,2/8
same,Average Scores (hyperplasia),"[3]; Group II, 25 MG/KG/day oral",1.50+0.34
same,Average Scores (hyperplasia),"[3]; Group III, 75 MG/KG/day oral",1.38+0.38
same,"Lung Connective Tissue Score 0, Total (number of animals)",[4]; [6],5
same,"Lung Connective Tissue Score 1, Total (number of animals)",[4]; [6],11
same,"Lung Connective Tissue Score 2, Total (number of animals)",[4]; [6],2
same,"Lung Connective Tissue Score 3, Total (number of animals)",[4]; [6],1
same,"Lung Connective Tissue Score, Mean","[4]; Group IV, 300 mg/kg body weight daily in the diet for three months, score schedule 0-3, control mean 1.63, P<0.02, 300 mg/kg",0.95 ± 0.23 and 0.95
